# Measurements taken from patent publication US11504339B2, “Compositions comprising urolithin a and uses thereof in treating kidney injury” (priority 2020, dated 2022).
# What was measured:
# [1] = test system: renal apoptosis; experiment: TUNEL immunofluorescence of kidney sections; type: in vivo, mouse
# Source text: Kidney sections were deparaffinized in xylene, rehydrated, and washed. After antigen retrieval, tissue sections were stained with fluorescein-labeled terminal deoxynucleotidyl transferase dUTP nick end labeling (TUNEL) kit (Roche, Mannheim, Germany). Slides were mounted using Vectashield Mounting Media containing DAPI (Vector Laboratories, Burlingame, Calif.). Tissue sections were imaged using the EVOS FL fluorescence microscope at 20× original magnification. TUNEL-positive cells from ten fields per kidney section and five sections per group of at least four animals were quantified using the ImageJ software's particle counter by thresholding for green fluorescence.
# [2] = test system: miRs and stress responsive genes; experiment: Real-time PCR of renal cortex (miRs and stress responsive genes); type: in vivo, mouse
# Description: Approximately 5 mg of kidney cortex was homogenized in Trizol solution. Micro RNA and large RNA were sequentially extracted and purified with E.Z.N.A. Micro RNA Kit (Omega Bio-tek, Norcross, Ga.) following manufacturer instructions. RNA concentrations were determined using the NanoQuant plate reader (Tecan Infinite M200). Reverse transcription for large RNA and miRNA were separately carried out using iScript gDNA Clear cDNA Synthesis Kit (Bio-Rad) and the miScript II RT Kit (Qiagen, Hilden, Germany), respectively. HiSpec Buffer was used in the latter RT reaction to target mature miRNA, and 1 μg of template RNA was used for all RT reactions. The CFX96 Touch Real-Time PCR Detection System (Bio-Rad) was used for qPCR. For gene expression, cDNA was amplified using appropriate primers (see Table 1), along with the iTaq Universal SYBR Green Supermix (Bio-Rad). Primers were pre-designed and validated by Harvard PGA Primerbank.
# For miRNA expression, cDNA was amplified using miScript Primer Assays for miR-192-5p and miR-140-5p (Qiagen), along with the miScript SYBR Green PCR Kit (Qiagen). ΔCt values were calculated with β-actin (gene expression) or RNU6 (miRNA) normalization, and fold change of the gene of interest between groups was expressed as 2^−ΔΔCt.
# [3] = test system: CIS-resistant A2780 ovarian cancer cells; experiment: Cell viability of cisplatin-resistant A2780 cells, UA plus CIS; type: cell-based; conditions: alone vs combination at the same concentrations
# [4] = test system: intracellular NAD; experiment: Intracellular NAD+ measurement in kidney cortex; type: in vivo, mouse; conditions: normalized to total protein
# Description: Approximately 5 mg of kidney cortex from each mouse was homogenized in cold RIPA buffer. After centrifugation, approximately 50 μL of supernatant was processed in triplicate using Amplite Fluorimetric NAD Assay Kit (AAT Bioquest, Sunnyvale, Calif.) while following manufacturer instructions. Fluorescence at 420/480 nm was measured using the plate reader (Tecan Infinite M200) and NAD concentration determined using a standard curve constructed on the same day of the experiment. Protein concentration of the lysate was determined by the Bradford Assay (Bio-Rad) and served as normalization.
# [5] = test system: NRF2, P53, mitochondrial OXPHOS complexes; experiment: Western blot of kidney cortex; type: in vivo, mouse
# Description: Approximately 5 mg of kidney cortex from each mouse was homogenized in cold RIPA buffer. After centrifugation, the supernatant was collected and protein concentration was determined using the Bradford assay (Thermo Scientific, Waltham, Mass.). Approximately 30 μg of protein was subjected to denaturing SDS-PAGE. The gel-separated proteins were transferred to a 0.45 μm nitrocellulose membrane, followed by standard Western blot protocol.
# Primary antibodies Nrf2 (CAT #MBS2538072, MyBiosource, San Diego, Calif.), P53 (CAT #928, Cell Signaling Technology, Danvers, Mass.), and GAPDH (CAT #2118, Cell Signaling Technology) were diluted at 1:1000, while Total OXPHOS Cocktail (CAT #ab110413, Abcam, Los Angeles, Calif.) was diluted at 1:250. HRP-conjugated secondary antibodies (Thermo Scientific): goat anti-mouse IgG and anti-rabbit igG were diluted at 1:5000. The ECL reagent was used to develop protein signals, and images were captured by the ChemiDoc imaging system (Bio-Rad, Hercules, Calif.).
# [6] = CIS control compared to the P2Ns-GA UA and negative control groups
# [7] = CIS control compared with the P2Ns-GA UA and negative control groups
# [8] = at sacrifice, normalized to U6 snRNA
smiles,measurement,setting,value
"N.N.[Cl][Pt][Cl] [CIS, Cis-diamminedichloridoplatinum]",renal apoptosis (TUNEL positive cells),[1],increased incidences
same,renal expression of Mt1 (NRF2-inducible gene),[2]; [6],8-12 fold
same,renal expression of Srxn1 (NRF2-inducible gene),[2]; [6],4-5 fold
same,renal expression of Txnrd1 (NRF2-inducible gene),[2]; [6],7-14 fold
same,renal expression of Atf3 (P53-inducible gene),[2]; [7],3-4 fold
same,renal expression of Cdkn1a (P21) (P53-inducible gene),[2]; [7],7-49 fold
same,renal expression of Trp53inp1 (SIP) (P53-inducible gene),[2]; [7],9-12 fold
same,renal miR-140-5p expression,[2]; [8],reductions
same,renal miR-192-5p expression,[2]; [8],reductions
same,PARP1 expression,[2]; normalized to β-actin,elevated
same,"expression of genes associated with hypoxia (HIF1α, Pgk1)",[2]; normalized to β-actin,decreased expression
same,cell death / cell viability,[3],failed to cause cell death
same,intracellular NAD,[4],reductions
same,"mitochondrial complexes I, II, III, and IV / deficiencies in oxidative phosphorylation","[5]; Western blot, kidney cortex",marked decreases
same,renal expression of the NRF2 protein,[5]; compared to the P2Ns-GA UA and negative control groups,significantly higher
"O=c1oc2cc(O)ccc2c2ccc(O)cc12 [UA, 3,8-Dihydroxybenzo[c]chromen-6-one]",cell death / cell viability,[3],failed to cause cell death
